Data reported in patent US9556113B2, “Combination uses of dichloroacetate and oxamate, and their prodrugs, for cancer treatment” (The South Dakota Board of Regents, priority 2014, dated 2017).

What was measured:
[1] = tested on: E6E7/Ras cells; assay: Lactate secretion into culture medium, enzyme based assay; format: cell-based, mouse; settings: 5 mM each, 4 hours
Procedure: FIG. 5 illustrates the reduction of lactate secretion in cultured cells by prodrugs AT-N4-001 and AT-N4-002. E6E7Ras cells were plated in 100 mm dishes and grown to confluence. The medium was changed to bicarbonate-free DMEM-10% FBS with or without the indicated treatments (5 mM each). Four hours later the medium was collected and lactate was measured using an enzyme based assay from Eton Bioscience. Con indicates the control samples for the DCA and Oxamate samples. DMSO indicates the vehicle only control for the AT-N4-001 and AT-N4-002 prodrug samples.
AT-N4-001 and AT-N4-002 should each release two molecules of DCA and one molecule of oxamate. Both DCA and oxamate are expected to reduce cellular lactate production. Therefore, we examined the changes in lactate after treatment of E6E7/Ras cells with the prodrugs. E6E7/Ras cells were seeded into 100 mm dishes and the next day treated with 5 mM AT-N4-001, 5 mM AT-N4-002, 5 mM DCA plus 5 mM oxamate, or 5 mM DCA alone. Culture medium was collected after 4 hours of treatment and lactate levels were determined (FIG. 5). […] To confirm the effects of these compounds on lactate production, the extra cellular acidification rate (ECAR) was measured using a Seahorse XF24 Extracellular Flux analyzer. Since lactate is transported from cells together with a proton, acidification of the culture medium (ECAR) is an estimate of lactate production and the glycolytic rate of cells. In the experiment shown in FIG. 6A, ECAR measurements were initiated in the absence of glucose. At point A, glucose was added and ECAR measurements continued. […] At point B, additional glucose along with vehicle (control), DCA plus oxamate, or AT-N4-002 was added. […] This is shown by a bar graph in FIG. 6B.

[2] = tested on: HPV+ HNSCC tumor; assay: IHC of tumors for cleaved caspase 3 and Ki67; format: in vivo, wild-type mice; settings: one week treatment plus one round of CRT
From the text: FIG. 10 illustrates Effect of AT-N4-002 on tumor cell apoptosis and cell proliferation. (A) Sections of tumors from mice treated either with chemo-radiation (Tx) or chemoradiation plus AT-N4-002 were subjected to IHC to detect cleaved caspase 3 or Ki67. (B) Cleaved caspase 3 positive cells were counted in 5 random fields from the IHC experiment shown in A. (C) The percent of Ki67 positive cells from the IHC experiment shown in A.
To examine potential direct, immune-independent effects of the prodrug on tumors, tumor bearing wild-type mice were treated for one week with AT-N4-002 plus one round of chemoradiation. Tumors were then harvested and processed for immunohistochemical detection of Ki67, a proliferation marker, and cleaved caspase 3, a marker for apoptosis (FIG. 10). […] Such direct effects on the tumor cells could be responsible for the reduced tumor growth observed in immune deficient mice.

[3] = tested on: HPV+ HNSCC tumor; assay: Tumor growth and survival with chemoradiation in RAG-1 immune-deficient mice; format: in vivo, RAG-1 mice; settings: in combination with chemoradiation
Procedure: FIG. 9 illustrates the effect of AT-N4-002 prodrug on tumor growth (A) and animal survival (B) in RAG-1 immune-deficient mice. Treatment conditions are the same as those described in FIG. 7.
To examine whether the prodrug AT-N4-002 also requires an immune response to control tumor growth, experiments were performed in RAG-1 mice. Based on our previous experience with DCA, we hypothesized that survival and tumor clearance would not be observed in these immune deficient mice following treatment with AT-N4-002. […] These immune-independent effects of AT-N4-002 on tumor growth in immune-deficient mice could be due to direct effects on tumor cell growth or cell death as described in Example 9, below.

[4] = tested on: E6E7/Ras cells; assay: Extracellular acidification rate (ECAR), Seahorse XF24; format: cell-based, mouse; settings: added at point B with additional glucose
Procedure: FIG. 6 illustrates the reduction of extracellular acidification rate (ECAR) by prodrugs AT-N4-001 and AT-N4-002. (A) ECAR was measured using a Seahorse XF24 instrument. At time point A glucose was added to the cultures. At time point B the indicated drugs were added with additional glucose. At time point C 2-deoxyglucose was added to block glycolysis. (B) Bar graph of ECAR at the time point indicated as Rate 8 in A.
AT-N4-001 and AT-N4-002 should each release two molecules of DCA and one molecule of oxamate. Both DCA and oxamate are expected to reduce cellular lactate production. Therefore, we examined the changes in lactate after treatment of E6E7/Ras cells with the prodrugs. E6E7/Ras cells were seeded into 100 mm dishes and the next day treated with 5 mM AT-N4-001, 5 mM AT-N4-002, 5 mM DCA plus 5 mM oxamate, or 5 mM DCA alone. Culture medium was collected after 4 hours of treatment and lactate levels were determined (FIG. 5). […] To confirm the effects of these compounds on lactate production, the extra cellular acidification rate (ECAR) was measured using a Seahorse XF24 Extracellular Flux analyzer. Since lactate is transported from cells together with a proton, acidification of the culture medium (ECAR) is an estimate of lactate production and the glycolytic rate of cells. In the experiment shown in FIG. 6A, ECAR measurements were initiated in the absence of glucose. […]

[5] = tested on: HPV+ HNSCC tumor; assay: Intratumoral pH and tumor lactate; format: in vivo, wild-type mice
Procedure: FIG. 11 illustrates the effect of prodrug on tumor pH and tumor lactate. (A) Intratumoral pH in living animals was determined by inserting a needle pH electrode directly into the tumor. The pH was read at 3 different depths in each tumor. Each marker on the graph represents a separate pH measurement. The bar represents the mean and the error bars the standard deviation. (B) Frozen sections of excised tumors were used to estimate lactate levels in the tumor microenvironment. This was performed using the In Vivo Xtreme imager to visualize lactate-dependent luciferase activity as described by Broggini-Tenzer et al. [Metabolism of tumors under treatment: mapping of metabolites with quantitative bioluminescence. Radiother Oncol 99, 398-403 (2011)]. (C) Plot of lactate measurements in B. Each marker represents one tumor. The bar represents the mean and the error bars the standard deviation.
The ability of DCA and oxamate to enhance survival in wild-type mice following chemoradiation correlates closely with their ability to reduce tumor lactate. We therefore examined the ability of the prodrug AT-N4-002 to reduce tumor lactate. Wild-type tumor bearing mice were treated with either CRT or CRT followed by one week of daily ip injection of AT-N4-002. Lactate is exported from cells together with a proton and therefore promotes acidification of the tumor microenvironment. Intratumoral pH was measured with a needle pH electrode. […] (FIG. 11B,C).

[6] = CRT followed by one week of daily ip injection

| SMILES | lactate production (culture medium, FIG. 5) [1] | Ki67 positive cells in tumor (FIG. 10C) [2] | cleaved caspase 3 positive cells in tumor compared to CRT alone (FIG. 10B) [2] | survival in RAG-1 mice (FIG. 9B) [3] | tumor growth in RAG-1 mice (FIG. 9A) [3] | increase in ECAR after glucose addition (FIG. 6) [4] | intratumoral pH compared to CRT group (FIG. 11A) [5, 6] | tumor lactate (FIG. 11B,C) [5, 6] | lactate production and acidity in tumor tissues versus DCA plus oxamate ([5]; separate in vivo experiment, data not shown) |
| --- | --- | --- | --- | --- | --- | --- | --- | --- | --- |
| NC(=O)C(=O)OC(COC(=O)C(Cl)Cl)COC(=O)C(Cl)Cl [AT-N4-001, 2-(2-Amino-2-oxoacetoxy)propane-1,3-diyl bis(2,2-dichloroacetate)] | significantly reduce lactate production | – | – | – | – | – | – | – | – |
| NC(=O)C(=O)OCC(COC(=O)C(Cl)Cl)OC(=O)C(Cl)Cl (stereo not shown) [AT-N4-002, 3-(2-amino-2-oxoacetoxy)propane-1,2-diyl bis(2,2-dichloroacetate)] | significantly reduce lactate production | appeared to decrease | significantly increased | lengthened survival | slowed tumor growth | completely blocked | significantly higher | decreased tumor lactate | more effective in reducing lactate production and acidity in tumor tissues than DCA plus oxamate |
